According to the supplement of paper PMC9663587:

Assays:
Neratinib/HKI272 = compound: CCOc1cc2ncc(C#N)c(Nc3ccc(OCc4ccccn4)c(Cl)c3)c2cc1NC(=O)/C=C/CN(C)C [Neratinib/HKI272]; assay: increase in dead-cell fraction, 72 h; higher = more death;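 note: breast cancer cell lines in 384-well plates, stained with Hoechst plus LIVE/DEAD far red dye and imaged, cells above an LDR intensity threshold counted dead, Hoechst-negative corpses included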
[1] = compound: CCc1cnn2c(NCc3ccc[n+]([O-])c3)cc(N3CCCC[C@H]3CCO)nc12; assay: as above
[2] = compound: CC(=O)c1c(C)c2cnc(Nc3ccc(N4CCNCC4)cn3)nc2n(C2CCCC2)c1=O; assay: as above
LEE011/Ribociclib = compound: CN(C)C(=O)c1cc2cnc(Nc3ccc(N4CCNCC4)cn3)nc2n1C1CCCC1 [LEE011/Ribociclib]; assay: as above
[3] = compound: CCN1CCN(Cc2ccc(Nc3ncc(F)c(-c4cc(F)c5nc(C)n(C(C)C)c5c4)n3)nc2)CC1; assay: as above
Flavopiridol = compound: CN1CC[C@H](c2c(O)cc(O)c3c(=O)cc(-c4ccccc4Cl)oc23)[C@H](O)C1 [Flavopiridol]; assay: as above
BSJ-03-123 = compound: CC(=O)c1c(C)c2cnc(Nc3ccc(N4CCN(CCOCCOCCOCCNC(=O)COc5cccc6c5C(=O)N(C5CCC(=O)NC5=O)C6=O)CC4)cn3)nc2n(C2CCCC2)c1=O [BSJ-03-123]; assay: as above
THZ1 = compound: CN(C)C/C=C/C(=O)Nc1ccc(C(=O)Nc2cccc(Nc3ncc(Cl)c(-c4c[nH]c5ccccc45)n3)c2)cc1 [THZ1]; assay: as above
AZD6738 = compound: C[C@@H]1COCCN1c1cc(C2([S@](C)(=N)=O)CC2)nc(-c2cc[nH]c3nccc2-3)n1 [AZD6738]
BSJ-01-175 = compound: CN(C)C/C=C/C(=O)Nc1ccc(O[C@@H]2CCC[C@@H](Nc3ncc(Cl)c(-c4c[nH]c5ccccc45)n3)C2)cc1 [BSJ-01-175]
Vorinostat = compound: O=C(CCCCCCC(=O)Nc1ccccc1)NO [Vorinostat]
AZD2014 = compound: CNC(=O)c1cccc(-c2ccc3c(N4CCOC[C@@H]4C)nc(N4CCOC[C@@H]4C)nc3n2)c1 [AZD2014]
Tivantinib/ARQ197 = compound: O=C1NC(=O)[C@@H](c2cn3c4c(cccc24)CCC3)[C@@H]1c1c[nH]c2ccccc12 [Tivantinib/ARQ197]
AZD7762 = compound: NC(=O)Nc1cc(-c2cccc(F)c2)sc1C(=O)N[C@H]1CCCNC1 [AZD7762]
[4] = compound: COc1ccc2c(c1)[C@]1(C[C@H]1c1ccc3c(/C=C/c4ccc(CN5C[C@@H](C)O[C@@H](C)C5)cc4)n[nH]c3c1)C(=O)N2
[5] = compound: CCN1CCN(Cc2ccc(Nc3ncc(F)c(-c4cc(F)c5nc(C)n(C(C)C)c5c4)n3)nc2)CC1
[6] = compound: CC(=O)Nc1cccc(-n2c(=O)n(C3CC3)c(=O)c3c(Nc4ccc(I)cc4F)n(C)c(=O)c(C)c32)c1
[7] = compound: CCC1=CN=CN=C1N2CCN(CC2)CC3=NC4=C(N3)C=C(C=C4)C(F)(F)F
Ipatasertib/GDC0068 = compound: CC(C)NC[C@@H](C(=O)N1CCN(c2ncnc3c2[C@H](C)C[C@H]3O)CC1)c1ccc(Cl)cc1 [Ipatasertib/GDC0068]
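Throughout, for GR50, 72 h: breast cancer and non-malignant breast epithelial cell lines, Deep Dye Drop or Dye Drop imaging, nine half-log doses, GR normalized to time-zero plates and DMSO-only controls.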

AU565
increase in dead-cell fraction (Neratinib/HKI272; 0.0003162 µM): 0.0048 | increase in dead-cell fraction (Neratinib/HKI272; 0.001 µM): 0.0173 | increase in dead-cell fraction (Neratinib/HKI272; 0.003162 µM): 0.0398 | increase in dead-cell fraction (Neratinib/HKI272; 0.01 µM): 0.0858 | increase in dead-cell fraction (Neratinib/HKI272; 0.03162 µM): 0.16 | increase in dead-cell fraction (Neratinib/HKI272; 0.1 µM): 0.195 | increase in dead-cell fraction (Neratinib/HKI272; 0.3162 µM): 0.232 | increase in dead-cell fraction (Neratinib/HKI272; 1 µM): 0.206 | increase in dead-cell fraction (Neratinib/HKI272; 3.162 µM): 0.321 | increase in dead-cell fraction ([1]; 0.0001 µM): 0.0029 | increase in dead-cell fraction ([1]; 0.0003162 µM): 0.0001 | increase in dead-cell fraction ([1]; 0.001 µM): 0.0027 | increase in dead-cell fraction ([1]; 0.003162 µM): 0.0033 | increase in dead-cell fraction ([1]; 0.01 µM): 0.0437 | increase in dead-cell fraction ([1]; 0.03162 µM): 0.247 | increase in dead-cell fraction ([1]; 0.1 µM): 0.346 | increase in dead-cell fraction ([1]; 0.3162 µM): 0.315 | increase in dead-cell fraction ([1]; 1 µM): 0.345 | increase in dead-cell fraction ([2]; 0.0003162 µM): -0.0036 | increase in dead-cell fraction ([2]; 0.001 µM): -0.0011 | increase in dead-cell fraction ([2]; 0.003162 µM): 0.0019 | increase in dead-cell fraction ([2]; 0.01 µM): -0.0007 | increase in dead-cell fraction ([2]; 0.03162 µM): 0.008 | increase in dead-cell fraction ([2]; 0.1 µM): 0.0139 | increase in dead-cell fraction ([2]; 0.3162 µM): 0.0209 | increase in dead-cell fraction ([2]; 1 µM): 0.0255 | increase in dead-cell fraction ([2]; 3.162 µM): 0.0446 | increase in dead-cell fraction (LEE011/Ribociclib; 0.001 µM): -0.0067 | increase in dead-cell fraction (LEE011/Ribociclib; 0.003162 µM): -0.0027 | increase in dead-cell fraction (LEE011/Ribociclib; 0.01 µM): 0.0258 | increase in dead-cell fraction (LEE011/Ribociclib; 0.03162 µM): 0.0105 | increase in dead-cell fraction (LEE011/Ribociclib; 0.1 µM): 0.0143 | increase in dead-cell fraction (LEE011/Ribociclib; 0.3162 µM): 0.0331 | increase in dead-cell fraction (LEE011/Ribociclib; 1 µM): 0.0469 | increase in dead-cell fraction (LEE011/Ribociclib; 3.162 µM): 0.0463 | increase in dead-cell fraction (LEE011/Ribociclib; 10 µM): 0.0439 | increase in dead-cell fraction ([3]; 0.001 µM): 0.0076 | increase in dead-cell fraction ([3]; 0.003162 µM): 0.0065 | increase in dead-cell fraction ([3]; 0.01 µM): 0.0106 | increase in dead-cell fraction ([3]; 0.03162 µM): 0.0354 | increase in dead-cell fraction ([3]; 0.1 µM): 0.043 | increase in dead-cell fraction ([3]; 0.3162 µM): 0.0403 | increase in dead-cell fraction ([3]; 1 µM): 0.0369 | increase in dead-cell fraction ([3]; 3.162 µM): 0.0205 | increase in dead-cell fraction ([3]; 10 µM): 0.085 | increase in dead-cell fraction (Flavopiridol; 0.0001 µM): -0.0146 | increase in dead-cell fraction (Flavopiridol; 0.0003162 µM): -0.004 | increase in dead-cell fraction (Flavopiridol; 0.001 µM): 0.0124 | increase in dead-cell fraction (Flavopiridol; 0.003162 µM): 0.0024 | increase in dead-cell fraction (Flavopiridol; 0.01 µM): -0.0083 | increase in dead-cell fraction (Flavopiridol; 0.03162 µM): 0.0121 | increase in dead-cell fraction (Flavopiridol; 0.1 µM): 0.0266 | increase in dead-cell fraction (Flavopiridol; 0.3162 µM): 0.262 | increase in dead-cell fraction (Flavopiridol; 1 µM): 0.602 | increase in dead-cell fraction (BSJ-03-123; 0.001 µM): 0.0012 | increase in dead-cell fraction (BSJ-03-123; 0.003162 µM): -0.0066 | increase in dead-cell fraction (BSJ-03-123; 0.01 µM): 0.0069 | increase in dead-cell fraction (BSJ-03-123; 0.03162 µM): -0.0059 | increase in dead-cell fraction (BSJ-03-123; 0.1 µM): 0.0078 | increase in dead-cell fraction (BSJ-03-123; 0.3162 µM): 0.0057 | increase in dead-cell fraction (BSJ-03-123; 1 µM): 0.0399 | increase in dead-cell fraction (BSJ-03-123; 3.162 µM): 0.0336 | increase in dead-cell fraction (BSJ-03-123; 10 µM): 0.306 | increase in dead-cell fraction (THZ1; 0.0001 µM): -0.0048 | increase in dead-cell fraction (THZ1; 0.0003162 µM): -0.0064 | increase in dead-cell fraction (THZ1; 0.001 µM): -0.0098 | increase in dead-cell fraction (THZ1; 0.003162 µM): -0.0018 | increase in dead-cell fraction (THZ1; 0.01 µM): 0.0038 | increase in dead-cell fraction (THZ1; 0.03162 µM): 0.0873 | increase in dead-cell fraction (THZ1; 0.1 µM): 0.262 | increase in dead-cell fraction (THZ1; 0.3162 µM): 0.48 | increase in dead-cell fraction (THZ1; 1 µM): 0.579 | GR50, 72 h (AZD6738): 8.56 µM | GR50, 72 h (BSJ-01-175): 0.00616 µM | GR50, 72 h (Vorinostat): 1.07 µM | GR50, 72 h (AZD2014): 0.00361 µM | GR50, 72 h (Tivantinib/ARQ197): 0.215 µM | GR50, 72 h (AZD7762): 0.805 µM | GR50, 72 h [4]: 0.00339 µM | GR50, 72 h [5]: 0.0308 µM | GR50, 72 h [6]: > 1 µM | GR50, 72 h [7]: 9.42 µM | GR50, 72 h (Ipatasertib/GDC0068): 3.89 µM
